Experimental findings from article PMC12214830, “The human RIF1-Long isoform interacts with BRCA1 to promote recombinational fork repair under DNA replication stress” (Nature Communications, 2025) are described below.

For assay [1], the system named is RIF1-BRCA1 proximity in RPE-1 cells. As to the kind of experiment: RIF1-BRCA1 proximity ligation assay, RPE-1 cells. Format: cell-based, human. As to the method:
(§1) Proximity ligation assays were performed using the Duolink In Situ PLA Fluorescence Protocol (Sigma-Aldrich, DUO92101) following the manufacturer’s instruction. Cells were grown on glass coverslips and treated as indicated for specific experiments. Cells were then permeabilized with 0.5% TritonX-100 in PBS for 10 min on ice, and fixed with 3% formaldehyde, 2% sucrose in PBS for 10 min at room temperature (RT). After fixation, coverslips were blocked in 3% BSA in PBS for 1 h at RT and incubated with primary antibodies (anti-RIF1, Bethel laboratories A300-568A, 1:1000 dilution; anti-BRCA1, Santa Cruz Biotechnologies, sc-6954, 1:200 dilution), for 1 h at RT in a humidity chamber. Primary antibodies were then washed off with PLA washing buffer A supplied in the Duolink In Situ PLA kit. Coverslips were next incubated sequentially with PLA Probes (1 h at 37 °C), ligation solution (30 min at 37 °C) and amplification solution (100 min at 37 °C), with washes by washing buffer A in between each step. At the end of incubation, coverslips were washed with washing buffer B supplied in the Duolink In Situ PLA kit. Coverslips were then mounted on glass slides with PLA Mounting medium with DAPI. Images were captured by fluorescence microscopy (Zeiss Axio Imager). PLA foci number in each nucleus were analysed by CellProfiler Software[74] with a custom-made pipeline.
For EdU labelling combined with proximity ligation assay, cells were labelled with 10 µM EdU for 15 min, washed free of EdU and next incubated with medium containing 4 mM HU medium for 4 h. Cells were then permeabilized, fixed and subjected to RIF1-BRCA1 PLA procedures. After all PLA steps, EdU detection was performed following manufacturer’s instructions in the Click-iT EdU Imaging Kit (Invitrogen, C10640).
(§2) For proximity ligation assays and immunofluorescence signal intensity measurements, when comparing between two samples, statistical significance of differences was calculated by Mann-Whitney test for non-parametric distributions using GraphPad Prism software (v.9). When comparing among three or more samples, p values were calculated by Kruskal-Wallis test for non-parametric distributions with Dunn’s multiple comparisons using GraphPad Prism software (v.9). For RIF1 foci formation analysis (Fig. 6B), p values were calculated by two-tailed Student’s t test. For nuclear BRCA1 intensity fold change analyses (Fig. 6C, D), p values were calculated by two-tailed one-sample t test using GraphPad Prism software (v.9). For RAD51 foci formation analyses (Fig. 7B, E and Supplementary Fig. 7B), p values were calculated by chi-square test. For HR Reporter assay analysis (Fig. 7G and Supplementary Fig. 7L), p values were calculated by two-tailed paired Student’s t test. For micronuclei frequency analysis (Fig. 7H), p values were calculated by one-tailed paired Student’s t test. All Student’s t tests were performed with Excel T.TEST function. Chi-square tests were performed with the online Chi-square test calculator at https://www.socscistatistics.com/tests/chisquare2/default2.aspx. Sample number n for all box-and-whisker plots and dot plots are listed in Supplementary Data 1.

Assay [2] deals with HCT116 cells. As to the kind of experiment: colony formation (clonogenic survival) assay, HCT116 cells. The assay is classed as cell-based, human. As to the method: For HCT116-derived cells, cells were plated in 6-well plates at 250 cells/well, in triplicate for each drug concentration. Cells were incubated with drugs for 24 h, after which drug-containing medium was replaced with drug-free medium. Seven days later colony counting was performed using a Nikon Eclipse TS100 microscope. For the IR sensitivity test, cells were plated following the same procedure, then irradiated at desired doses and incubated for 7 days before colony counting. Clusters with more than 20 cells were counted as colonies. Mean and standard error of each triplicate was calculated.

Assay [3] deals with RIF1-L phosphoS2265. As to the kind of experiment: Western blot, RIF1-L phosphoS2265, HeLa cells. The assay is classed as cell-based, human. As to the method:
Cells were harvested in 10 mM Tris-HCl pH 7.5, 2 mM EDTA buffer and lysed with laemmli sample buffer (Bio-Rad, 1610737, supplemented with 5% β-mercaptoethanol). Samples were heated at 95 °C for 15 min and centrifuged at 13,000 × g for 15 min. Protein concentrations were measured by RC DC Protein Assay (Bio-Rad, 5000122). Equal amounts of total proteins for each sample were separated in Mini-PROTEAN TGX Stain-free Precast Gels (Bio-Rad) by SDS-PAGE. Gels were at this stage imaged with the ChemiDoc Touch Imaging System (Bio-Rad) using the ‘Protein gel – Stain free’ module to obtain stain-free gel images. Proteins on gel were transferred to PVDF membranes (Bio-Rad, 1704274) using the Trans-Blot Turbo Blotting System (Bio-Rad). Membranes were blocked in 3% BSA in TBS-T (1x TBS supplemented with 0.1% Tween-20) at RT for 1 h, followed by incubation with primary antibodies overnight at 4 °C. Membranes were washed with TBS-T and then incubated with secondary antibodies for 1 h at RT. The blots were developed with Clarity ECL reagents (Bio-Rad, 1705060) and imaged with the ChemiDoc Touch Imaging System (Bio-Rad). Primary antibodies used for western blotting include anti-RIF1 (Bethyl Laboratories, A300-568A. 1:5000); anti-RIF1-L-Phospho-S2265 (amsbio, custom. 1:5000); anti-BRCA1 (D-9) (Santa Cruz Biotechnology, sc-6954. 1:1000); anti-BARD1 (Bethyl Laboratories, A300-263A. 1:1000); anti-53BP1 (Novus Biologicals, NB100-94. 1:5000); anti-PP1α (G4) (Santa Cruz Biotechnology, sc-271762. 1:1000); anti-Tubulin (YOL1/34) (Santa Cruz Biotechnology, sc-53030. 1:4000); anti-FLAG (M2) (Sigma-Aldrich, F1804. 1:2000); anti-GFP (Chromotek, 3h9. 1:2000); anti-RFP (Chromotek, 5f8. 1:2000). Uncropped and unprocessed Western Blot images are provided in the Source Data file.

In assay [4] the test system is RIF1-BRCA1 proximity in HeLa cells. As to the kind of experiment: RIF1-BRCA1 proximity ligation assay, HeLa cells. The following applies: HeLa +RIF1-L. The assay is classed as cell-based, human. As to the method:
as §1, §2

Assay [5] has as its system BRCA1 nuclear signal. As to the kind of experiment: BRCA1 nuclear immunofluorescence intensity, HeLa cells. Format: cell-based, human. As to the method: Cells were grown on glass coverslips and treated as desired. Cells were then permeabilized with 0.5% TritonX-100 in PBS for 7 min on ice, and fixed with 4% w/v formaldehyde solution (Sigma HT5012) for 10 min at room temperature (RT). After fixation, coverslips were blocked with 3% BSA in PBS (RT, 1 h), incubated with primary antibodies (RT, 2 h), washed with PBS three times and incubated with secondary antibodies (RT, 1 h). Primary antibodies used for immunofluorescence include anti-γH2A.X (20E3) (Cell Signalling Technology, 9718. 1:500); anti-RPA32/RPA2 (9H8) (Abcam, ab2175. 1:200); anti-RAD51 (H92) (Santa Cruz Biotechnology, sc-8349. 1:100); anti-BrdU (B44) (BD Biosciences, 347580. 1:100); Coverslips were then mounted on glass slides with mounting medium with DAPI. Images were captured by either standard (Zeiss Axio Imager) or confocal (Zeiss LSM-880) microscopy. Fluorescence signal intensities within each nucleus were analysed by CellProfiler software with custom-made pipelines. […]
as §2, with “All Student’s t tests were performed with Excel T.TEST function. Chi-square tests were performed with the online Chi-square test calculator at https://www.socscistatistics.com/tests/chisquare2/default2.aspx. Sample number n for all box-and-whisker plots and dot plots are listed in Supplementary Data 1.” left out

Assay [6] concerns micronuclei. As to the kind of experiment: micronuclei frequency, HeLa cells. The following applies: Fig.7H. The assay is classed as cell-based, human. As to the method:
as §2

Assay [7] has as its target BRCA1 C-terminal tandem BRCT domains (UniProt P38398). The experiment in a line: fluorescence polarisation titration. The following applies: reference: pS2265 peptide, untreated; sites S2265.
The test system of assay [8] is BRCA1-BRCT domain. The experiment in a line: X-ray crystal structure of peptide with BRCA1-BRCT (PDB 8RS8). Format: binding, human. As to the method:
For crystallographic studies, the N-terminal HIS-SUMO tag was removed from the His6-SUMO-BRCA1-BRCT2 by incubation with GST-3C protease (in house) for 12 h at 4 °C. A Superdex 75 16/60 size exclusion column (GE Healthcare) was used to purify the BRCT2 domains to homogeneity in 10 mM HEPES pH 7.5, 200 mM NaCl, 0.5 mM TCEP.
An unlabelled RIF1 pS2265 peptide (SPGSR(pS)PKFKS) (Peptide Protein Research Ltd, Bishops Waltham, UK) was mixed with the pure BRCA1-BRCT2 domains at a five molar excess prior to concentration to 15 mg/ml for use in crystallisation trials. Crystals grew in condition MORPHEUS E2 (55.5 mM MES, 44.5 mM Imidazole, 120 mM Diethylene glycol, 120 mM Triethylene-glycol, 120 mM Tetraethylene glycol, 120 mM Pentaethylene glycol, 20% (v/v) Ethylene glycol, 10% (w/v) PEG 8000) (Molecular Dimensions) and were looped before flash freezing in liquid nitrogen. Data were collected on beamline I04-1 at the Diamond Synchrotron Lightsource and the structure was determined using PHASER[70] to perform molecular replacement with PDB 4IGK as a search model before refinement using the PHENIX software package. Figures were produced using PyMOL v2.2.2.

The mark [9] stands for this setting: Chk1i (PF-477736) 1 µM 24 h + HU 4 mM 24 h.
Setting [10] is: Fig 4F, Chk1i (PF-477736) 1 µM 24 h + HU 4 mM 24 h.
Setting [11] is: Fig S4G (repeat), Chk1i (PF-477736) 1µM + HU 4mM 24hr.
Setting [12] is: ATRi (VE-821) 1 µM 24 h + HU 4 mM 24 h.
The mark [13] stands for this setting: Fig 4F, ATRi (VE-821) 1 µM 24 h + HU 4 mM 24 h.
The mark [14] stands for this setting: Fig S4G (repeat), ATRi (VE-821) 1µM + HU 4mM 24hr.
Setting [15] is: Fig S4H, ATRi (VE-821) 1µM + HU 4mM 24hr.

Entries after “also recorded” stand apart in the source; their conditions may differ. Non-standard residues stand in square brackets, D forms with d. No end group written: not given here. pS = N[C@@H](COP(=O)(O)O)C(=O)O

On to `CC[C@@]1(O)C(=O)OCc2c1cc1n(c2=O)Cc2cc3ccccc3nc2-1` [CPT, camptothecin], for which the “RIF1-BRCA1 PLA foci” value in assay [1] (CPT 100 nM 24 h) is listed as “also induced PLA foci”. Besides, in assay [1] (Fig 3C, CPT 100 nM 24 h), the “RIF1-BRCA1 PLA foci per nucleus, mean” value is recorded as 4.982 and the “RIF1-BRCA1 PLA foci per nucleus, median” value came out at 4. The “colony survival, RIF1-L cells” value in assay [2] (HCT116 expressing only RIF1-L, versus RIF1-WT) was “RIF1-L conferred resistance comparable to RIF1-WT”. Moreover, in assay [2] (HCT116 expressing only RIF1-S, versus RIF1-KO), the “colony survival, RIF1-S cells” value was “exhibited hypersensitivity to these drugs similar to RIF1-KO cells”.
Consider `Cn1cc(-c2[nH]c3cc(NC(=O)[C@H](N)C4CCCCC4)cc4c3c2C=NNC4=O)cn1` [PF-477736], for which the “RIF1-BRCA1 PLA foci formation” value in assay [1] (setting [9]) is recorded as “abolished PLA foci formation”. For the same compound, in assay [1] (setting [10]), the “RIF1-BRCA1 PLA foci per nucleus, mean” value was 0.156 and the “RIF1-BRCA1 PLA foci per nucleus, median” value came to 0. In addition, in assay [1] (setting [11]), the “RIF1-BRCA1 PLA foci per nucleus, mean” value came out at 0.316 and the “RIF1-BRCA1 PLA foci per nucleus, median” value worked out at 0. For the same compound, in assay [3] (setting [9]), the “HU-induced reduction of phosphoS2265 signal” value is listed as “partially reversed by Chk1 inhibition”.
With `CS(=O)(=O)c1ccc(-c2cnc(N)c(C(=O)Nc3ccccc3)n2)cc1` [VE-821], the “RIF1-BRCA1 proximity signal” value in assay [1] (setting [12]) is “significantly lowered the RIF1-BRCA1 proximity signal”. The “RIF1-BRCA1 PLA foci per nucleus, mean” value in assay [1] (setting [13]) was 1.672; in assay [1] (setting [14]) it was 1.661; in assay [4] (setting [15]), 13.09. Also, the “RIF1-BRCA1 PLA foci per nucleus, median” value in assay [1] (setting [13]) is 1; in assay [1] (setting [14]) it was 1; in assay [4] (setting [15]), 12. Besides, the “HU-induced reduction of phosphoS2265 signal” value in assay [3] (setting [12]) is “reversed by simultaneous ATR inhibition”. Moreover, the “RIF1-BRCA1 PLA” value in assay [4] (setting [12]) is “also reduced RIF1-BRCA1 PLA”.
In the case of RIF1-L, the “BRCA1 nuclear signal mean intensity” value stood at 12.65 in assay [5] (Exp 1), 11.6 in assay [5] (Exp 2) and 10.09 in assay [5] (Exp 3). The “Micronuclei per 100” value turned out to be 7.605 in assay [6] (HU, experiment 14Apr2024); 5.84 in assay [6] (HeLa RIF1 KO + GFP-RIF1 derivative cells, HU, experiment 07Jun2024); 3.60 in assay [6] (HeLa RIF1 KO + GFP-RIF1 derivative cells, unt, experiment 07Jun2024); 3.159 in assay [6] (unt, experiment 14Apr2024).
As to “RIF1-Long (RIF1-L) (from UniProt Q5UIP0) λ phosphatase treated peptide”, in assay [7], the “binding against the reference” value is “lost”.
Consider “SPGSR[pS]PKFKS [RIF1-L phospho-peptide, unlabelled RIF1 pS2265 peptide used for crystallography]”, for which the “binding mode in crystal” value was “fits within the BRCT pocket of BRCA1 as expected; also recorded: positively charged amino acids K^2267 and K^2269 of RIF1-L lie adjacent to the negatively charged E^1698 BRCA1 residue” in assay [8] (MORPHEUS E2); “found in the canonical phosphate binding pocket of the BRCA1 BRCTs” in assay [8] (MORPHEUS E2, listed as RIF1-L peptide).
